Laboratory results: patent publication US6825231B2, “Substituted norbornylamino derivatives, processes for their preparation, their use as medicaments or diagnostics, and a medicament comprising them” (Aventis Pharma Deutschland GmbH, priority 1999, dated 2004)
Structures can show the parent of a compound that is named as a salt.

Key:
male Wistar rats = experiment: Diuresis (salidiuresis) experiment in rats; assay type: in vivo, rat; settings: for Cl / K / Na: urine excretion; for Na/K / Osmolality: urine
Description: The salidiuresis experiment was carried out using male Wistar rats having a weight of 155 to 175 g. 16 hours before the start of the experiment, the feed, but not the drinking water, was withdrawn from the animals. The rats were randomized and placed into diuresis cages. […] The control group received, orally, the corresponding volume of drinking water as vehicle. The excretion of urine of each group for the first 5 hours and in the period from 6 to 24 hours was measured. The urine electrolytes sodium and potassium were determined by flame photometry (flame photometer Eppendorf, Hamburg), and chloride was determined potentiometrically (chloride meter Eppendorf). The osmolality of the urine was determined using the freezing-point depression method (osmometer Vogel, Gieβen). Urine and electrolyte excretion and osmolality are stated in ml/kg, mmol/kg, and mosmol/kg of body weight, respectively. The ratio of Na^+/K^+ is an indication of the quality of effect of a diuretic. The results given in the table are arithmetic means with standard deviation.

Caco 2 cells = experiment: Caco 2 model (transport across monolayers, absorbed fraction); assay type: in vitro ADME; settings: Caco 2 monolayers, apical to basolateral, assessed from Papp via calibration curve
Description: The Caco 2 cell line was obtained from the American Type Culture Collection (ATCC) and kept in Dulbecco's Modified Eagle Medium (high proportion of glucose), supplemented with non-essential amino acids, L-glutamine, penicillin/streptomycin, and 10% strength fetal calf serum, in an incubator under a 10% CO2 atmosphere at 95% relative atmospheric humidity and at 37° C. The cells were grown in cell culture flasks (175 cm^2). For the transport studies, the Caco 2 cells were inoculated onto polycarbonate cell culture inserts (COSTAR TRANSWELLS®, pore size: 3 μm, surface: 4.71 cm^2) at a cell density of 6.5×10^4 cells/cm^2 and incubated in six-well culture trays, changing the medium after four and eight days and then every other day. 21- to 25-day-old monolayers were used for the experiments.
In each test series, a 21-day-old monolayer was tested for its properties using ^3H-dextrane as permeability marker. The value of the transfer rate (cumulative) after 120 min had to be in the range of 2%.
The growth medium was removed from the apical and the basolateral side and the monolayers were then rinsed with the transport buffer (Hank's balanced salt solution pH 7.8; contains 2.8 g/l of glucose), and the cells were equilibrated at 37° C. under a 10% CO2 atmosphere for 15 min. The HBSS buffer is then removed.
The test compounds were dissolved in a mixture of HBSS buffer and DMSO and added to the apical buffer, giving a 1% strength (v/v) DMSO solution. The test concentration for the first experiment was 1 mM, that for the second experiment was 100 μM. The experiments were carried out at 37° C. and started by adding 1.5 ml of test solution on the donor side (apical). Transport buffer without compound was added to the recipient side (basolateral, 2.5 ml). […] Apical samples were taken at the start and at the end (120 min), so that the recovery rate of the compounds could be determined using these concentrations and the cumulative basolateral concentration. The compounds were analyzed by HPLC.
The apparent permeability coefficient (Papp) is calculated using the following equation: [formula]
in which dc/dt denotes the flow through the monolayer (μg of compound/(ml×s)), V denotes the liquid volume in the collection chamber (ml), A denotes the surface area of the monolayer (cm^2) and c0 denotes the initial concentration (μg of compound/ml) in the donor chamber. The flow through the monolayer was calculated from the cumulative basolateral concentration at the corresponding point of time using the initially linear data curve (linear up to 60 min). All determinations were carried out in three replications, so that the calculated Papp value is the mean of three measurements. […]

Rat NHE3 = molecular target: T1, Rat NHE3 (Rattus norvegicus, UniProt P26433); experiment: NHE activity measurement: pHi recovery after acid load in transfected LAP1 cells; assay type: cell-based; settings: pH recovery after acid load, 3 minutes
T1 construct: expressed in transfected cells
Text: Most molecular biology techniques follow protocols from the works “Current Protocols in Molecular Biology (eds. Ausubel, F. M., Brent, R., Kingston, R. E., Moore, D. D., Seidman, J. G., Smith, J. A. and Struhl, K.; John Wiley & Sons)” or: “Molecular Cloning: A Laboratory Manual (Sambrock, J., Fritsch, E. F. and Maniatis, T.; Cold Spring Harbor Laboratory Press (1989))”. In our studies, stable transfected cell lines were produced which in each case express one of the following NHE subtypes: NHE1 of man (Sardet et al. Cell 56, 271-280 (1989)), NHE2 of the rabbit (Tse et al. J. Biol. Chem. 268, 11917-11924 (1993)), NHE3 from humans (Brant et al. Am. J. Physiol. 269 (Cell Physiol. 38), C198-C206 (1995)) or NHE3 of the rat (Orlowski et al.; J. Biol. Chem. 267, 9331-9339 (1992)).
After adding suitable linker sequences, the cDNA clones of the respective NHE subtypes obtained by Prof. Pouyssegur were cloned into the expression plasmid pMAMneo (obtainable, for example, via CLONTECH, Heidelberg) such that the Nhel restriction endonuclease recognition sequence of the plasmid is approximately 20-100 base pairs before the start codon of the respective NHE subtype and the entire coding sequence is present in the construct. In the human NHE3 obtained from human kidney mRNA via RT-PCR, the RT-PCR primer were selected such that the resulting cDNA band had terminal restriction sites which matched pMAMneo.
Using the so-called “calcium phosphate method” (described in Chapter 9.1 of “Current Protocols in Molecular Biology”), the NHE-deficient cell line LAP1 (Franchi et al.; Proc. Natl. Acad. Sci. USA 83, 9388-9392 (1986)) was transfected with the plasmids which contain the respective coding sequences of the NHE subtypes. After selection of transfected cells by means of growth in G418-containing medium (only cells which as a result of transfection contain a neogene can survive under these conditions), a selection was made for functional NHE expression. To do this, the “Acid Load” technique described by Sardet was used (Sardet et al.; Cell 56, 271-280 (1989)). Cells which express a functioning NHE subtype can also compensate in the absence of CO2 and HCO3- for the acidification carried out during this test, but untransfected LAP1 cells cannot. After repetition of the “Acid Load” selection several times, the surviving cells were inoculated into microtiter plates such that statistically there should have been one cell per well. Under the microscope, a check was made after approximately 10 days as to how many colonies were growing per well. Cell populations of individual colonies were then investigated with respect to their viability after “Acid Load” using the XTT proliferation kit (Boehringer Mannheim). The best cell lines were used for the further tests, and to avoid a loss of the transfected sequence were cultured under continuous selection pressure in G418-containing medium.
To determine IC50-values for the inhibition of the individual NHE subtypes by specific substances, a test developed by S. Faber (Faber et al.; Cell. Physiol. Biochem. 6, 39-49 (1996)), which is based on the “Acid Load” technique, was slightly modified.
In this test, the recovery of the intracellular pH (pHi) after an acidification was determined, which commences with functioning NHE even under bicarbonate-free conditions. To do this, the pHi was determined using the pH-sensitive fluorescent dye BCECF (Calbiochem, the precursor BCECF-AM is employed). The cells were first loaded with BCECF. The BCECF fluorescence was determined in a “Ratio Fluorescence Spectrometer” (Photon Technology International, South Brunswick, N.J., USA) at excitation wavelengths of 505 and 440 nm and an emission wavelength of 535 nm and converted into the pHi by means of calibration curves. […]

[1] = 50 mg/kg p.o., mean, 6-24 hours
[2] = 50 mg/kg p.o., mean, sum 1-24 hours

T1 sequence (P26433 29-831): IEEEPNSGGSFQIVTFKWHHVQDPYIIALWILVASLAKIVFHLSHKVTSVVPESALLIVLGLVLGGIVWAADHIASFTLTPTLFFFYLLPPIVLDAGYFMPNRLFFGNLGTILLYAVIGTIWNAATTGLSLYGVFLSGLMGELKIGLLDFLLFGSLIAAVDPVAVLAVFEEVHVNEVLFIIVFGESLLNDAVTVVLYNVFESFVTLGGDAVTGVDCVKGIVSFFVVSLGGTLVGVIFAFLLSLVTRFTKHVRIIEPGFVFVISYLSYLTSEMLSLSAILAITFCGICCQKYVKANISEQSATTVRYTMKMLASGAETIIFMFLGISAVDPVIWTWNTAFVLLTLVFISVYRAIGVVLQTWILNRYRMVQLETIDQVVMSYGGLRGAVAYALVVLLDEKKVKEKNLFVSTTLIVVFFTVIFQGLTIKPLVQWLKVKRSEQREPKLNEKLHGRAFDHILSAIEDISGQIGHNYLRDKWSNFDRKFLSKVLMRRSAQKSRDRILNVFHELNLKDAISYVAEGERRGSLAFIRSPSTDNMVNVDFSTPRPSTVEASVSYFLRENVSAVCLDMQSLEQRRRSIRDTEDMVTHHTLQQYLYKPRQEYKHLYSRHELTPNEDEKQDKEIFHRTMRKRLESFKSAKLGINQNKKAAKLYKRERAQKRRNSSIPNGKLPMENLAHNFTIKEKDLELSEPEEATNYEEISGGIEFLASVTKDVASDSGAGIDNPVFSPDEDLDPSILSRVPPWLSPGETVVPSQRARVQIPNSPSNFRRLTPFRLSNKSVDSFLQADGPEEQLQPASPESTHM

## Brc1cccc(CN[C@@H]2C[C@@H]3C[C@H]2[C@@H]2CCC[C@H]32)c1.Cl
other
  melting point: 248 °C

## COCCOc1cccc(CN[C@@H]2C[C@@H]3C[C@H]2[C@@H]2CCC[C@H]32)c1.Cl
other
  melting point: 134 °C

## Cl.Ic1cccc(CN[C@@H]2C[C@@H]3C[C@H]2[C@@H]2CCC[C@H]32)c1
other
  melting point: 220 to 224 °C (dec.)

## CN(C)c1cccc(CN[C@@H]2C[C@@H]3C[C@H]2[C@@H]2CCC[C@H]32)c1.Cl
other
  melting point: 166 to 170 °C (dec.)

## COc1cccc(CCN[C@@H]2C[C@@H]3C[C@H]2[C@@H]2CCC[C@H]32)c1.Cl
other
  melting point: 222 to 225 °C

## COc1cccc(CCCN[C@@H]2C[C@@H]3C[C@H]2[C@@H]2CCC[C@H]32)c1.Cl
other
  melting point: 186 to 188 °C

## COc1cccc(CN[C@@H]2C[C@@H]3C[C@H]2[C@@H]2CCCC[C@H]32)c1.Cl
other
  melting point: 234 to 236 °C

## COc1cccc(CN[C@@H]2C[C@@H]3C[C@H]2[C@@H]2CCC[C@H]32)c1.Cl (racemic) [Example 5, rac-(exo/endo)-(3-methoxybenzyl)(octahydro-4,7-methanoinden-5-yl)amine hydrochloride]
Male Wistar rats; 50 mg in 10 ml of drinking water/kg of BW p.o., n = 5, mean, 1-5 hours
  Urine: 12.39 mL/kg
Male Wistar rats; 50 mg/kg orally, compared to the control
  salidiuretic effect (assessment): no salidiuretic effect
Male Wistar rats; [1]
  Urine: 22.57 mL/kg
  Cl: 1.57 mmol/kg
  K: 3.57 mmol/kg
  Na: 1.29 mmol/kg
  Na/K: 0.37
  Osmolality: 30.51 mosmol/kg
Male Wistar rats; [2]
  Urine: 34.96 mL/kg
  Cl: 2.17 mmol/kg
  K: 4.31 mmol/kg
  Na: 1.60 mmol/kg
  Na/K: 0.38
  Osmolality: 38.33 mosmol/kg
Male Wistar rats; 50 mg/kg p.o., mean, 1-5 hours
  Cl: 0.60 mmol/kg
  K: 0.75 mmol/kg
  Na: 0.31 mmol/kg
  Na/K: 0.47
  Osmolality: 7.82 mosmol/kg
Caco 2 cells
  Absorbed fraction: 100%
Rat NHE3
  IC50: 810 nM

## COc1cccc(CN[C@@H]2C[C@@H]3C[C@H]2[C@H]2CCC[C@@H]32)c1 (relative stereo) [Example 9, (exo/exo)-(3-methoxybenzyl)(octahydro-4,7-methanoinden-5-yl)amine hydrochloride]
Rat NHE3
  IC50: 5000 nM

## COc1cccc(CNC2CC3CC2C2CCCC32)c1 (single isomer, unassigned; (+)) [(+)−6, (+)-(exo/endo)-(3-methoxybenzyl)(octahydro-4,7-methanoinden-5-yl) amine hydrochloride]
Rat NHE3; hydrochloride
  IC50: 500 nM

## COc1cccc(CNC2CC3CC2C2CCCC32)c1 (single isomer, unassigned; (-)) [(−)−6, (−)-(exo/endo)-(3-methoxybenzyl)(octahydro-4,7-methanoinden-5-yl)amine hydrochloride]
Rat NHE3; hydrochloride
  IC50: 1000 nM

## COc1cccc(CN[C@@H]2CC3CC2[C@@H]2CCC[C@H]32)c1 (stereo partly drawn) [Example 7, (endo/exo)-(3-methoxybenzyl)(octahydro-4,7-methanoinden-5-yl)amine hydrochloride]
Rat NHE3
  IC50: 31000 nM

## COc1cccc(CN[C@@H]2CC3CC2[C@H]2CCC[C@@H]32)c1 (stereo partly drawn) [Example 8, (endo/endo)-(3-methoxybenzyl)(octahydro-4,7-methanoinden-5-yl)amine hydrochloride]
Rat NHE3
  IC50: 70000 nM

## Cl.Fc1cccc(CN[C@@H]2C[C@@H]3C[C@H]2[C@@H]2CCC[C@H]32)c1 [Example 10, (exo/endo)-(3-fluorobenzyl)(octahydro-4,7-methanoinden-5-yl)amine hydrochloride]
Caco 2 cells
  Absorbed fraction: 100%
Rat NHE3
  IC50: 900 nM

## O=C(O)c1cccc(CN[C@@H]2C[C@@H]3C[C@H]2[C@@H]2CCC[C@H]32)c1 [Example 14, (exo/endo)-3-[(octahydro-4,7-methanoinden-5-ylamino)-methyl]benzoic acid]
other
  melting point: 258 to 261 °C

## C/C(=C\c1cccc(/C=C(\C)C(=O)N=C(N)N)c1)C(=O)N=C(N)N.Cl.Cl [S 2120, reference compound]
Caco 2 cells
  Absorbed fraction: <1%

## C/C(=C\c1ccc(C)cc1/C=C(\C)C(=O)N=C(N)N)C(=O)N=C(N)N.Cl.Cl [S 3226, reference compound]
Caco 2 cells
  Absorbed fraction: <5%
